According to ChEMBL document CHEMBL3763133, “4-Arylbenzenesulfonamides as Human Carbonic Anhydrase Inhibitors (hCAIs): Synthesis by Pd Nanocatalyst-Mediated Suzuki-Miyaura Reaction, Enzyme Inhibition, and X-ray Crystallographic Studies” (J Med Chem, 2016):

How the values were obtained:
[1] = target: T1, Carbonic anhydrase 1 (Homo sapiens, UniProt P00915); assay: Inhibition of human carbonic anhydrase 1 incubated for 15 mins prior to testing by CO2 hydration-based stopped flow assay
Target sequence in this assay (P00915 whole entry): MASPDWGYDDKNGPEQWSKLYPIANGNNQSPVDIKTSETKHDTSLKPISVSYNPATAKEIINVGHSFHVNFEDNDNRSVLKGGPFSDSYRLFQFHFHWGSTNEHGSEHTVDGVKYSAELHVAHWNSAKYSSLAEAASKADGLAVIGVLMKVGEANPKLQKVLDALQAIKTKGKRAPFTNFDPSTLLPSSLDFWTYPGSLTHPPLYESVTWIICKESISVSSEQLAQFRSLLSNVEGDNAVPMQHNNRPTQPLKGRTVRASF

[2] = target: Carbonic anhydrase 2 (Homo sapiens, UniProt P00918); assay: Inhibition of human carbonic anhydrase 2 incubated for 15 mins prior to testing by CO2 hydration-based stopped flow assay
[3] = target: Carbonic anhydrase 12 (Homo sapiens, UniProt O43570); assay: Inhibition of human carbonic anhydrase 12 incubated for 15 mins prior to testing by CO2 hydration-based stopped flow assay
[4] = target: T2, Carbonic anhydrase 9 (Homo sapiens, UniProt Q16790); assay: Inhibition of human carbonic anhydrase 9 incubated for 15 mins prior to testing by CO2 hydration-based stopped flow assay
[5] = target: T1, Carbonic anhydrase 1; assay: Potency index, ratio of Ki for acetazolamide to Ki for test compound for inhibition of human carbonic anhydrase 1
Target sequence in this assay (P00915 2-261 limits assumed): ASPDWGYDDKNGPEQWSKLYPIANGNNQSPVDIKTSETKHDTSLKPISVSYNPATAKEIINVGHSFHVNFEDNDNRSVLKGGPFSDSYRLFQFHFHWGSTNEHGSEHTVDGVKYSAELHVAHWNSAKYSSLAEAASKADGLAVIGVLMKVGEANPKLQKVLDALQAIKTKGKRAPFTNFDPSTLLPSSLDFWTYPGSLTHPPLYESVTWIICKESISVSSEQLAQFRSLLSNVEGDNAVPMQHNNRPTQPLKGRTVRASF

[6] = target: T2, Carbonic anhydrase 9; assay: Potency index, ratio of Ki for acetazolamide to Ki for test compound for inhibition of human carbonic anhydrase 9

Carbonic anhydrase 12, sequence (O43570 whole entry): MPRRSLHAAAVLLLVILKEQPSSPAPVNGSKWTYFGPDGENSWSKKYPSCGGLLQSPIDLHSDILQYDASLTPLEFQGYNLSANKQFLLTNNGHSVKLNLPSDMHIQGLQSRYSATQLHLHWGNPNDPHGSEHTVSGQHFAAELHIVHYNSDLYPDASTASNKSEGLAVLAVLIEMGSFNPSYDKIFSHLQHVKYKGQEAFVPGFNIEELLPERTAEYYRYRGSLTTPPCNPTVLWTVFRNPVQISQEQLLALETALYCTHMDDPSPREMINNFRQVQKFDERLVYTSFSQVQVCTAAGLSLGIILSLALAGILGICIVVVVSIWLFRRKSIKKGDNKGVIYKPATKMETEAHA

| Compound | Ki [1] [nM] | Ki [2] [nM] | Ki [3] [nM] | Ki [4] [nM] | Ratio Ki [5] | Ratio Ki [6] |
| --- | --- | --- | --- | --- | --- | --- |
| Cc1ccccc1-c1ccc(S(N)(=O)=O)cc1 | 3500 | 1.2 | 47 |  |  |  |
| NS(=O)(=O)c1ccc(-c2cc3ccccc3n2S(=O)(=O)c2ccccc2)cc1 | > 10000 | 11.7 | 33.9 | 100 |  |  |
| NS(=O)(=O)c1ccc(-c2cnc3ccccc3c2)cc1 | 35.2 | 2.5 | 760 | 0.18 | 6 | 100 |
| NS(=O)(=O)c1ccc(-c2cc3ccccc3s2)cc1 | 370 | 0.84 | > 10000 | 0.21 |  | 100 |
| COc1ccc2[nH]c(-c3ccc(S(N)(=O)=O)cc3)cc2c1 | 2640 | 764 | 415 | 156 |  |  |
| NS(=O)(=O)c1ccc(-c2cn(S(=O)(=O)c3ccccc3)c3ccccc23)cc1 | 83.6 | 0.68 | 96.7 | 0.24 |  | 100 |
| CC(C)c1ccccc1-c1ccc(S(N)(=O)=O)cc1 | 146 | 0.98 | 0.58 |  |  |  |
| NS(=O)(=O)c1ccc(-c2cccc(-c3ccc(S(N)(=O)=O)cc3)c2)cc1 | > 10000 | 397 | 55.6 | 276 |  |  |
| NS(=O)(=O)c1ccc(-c2ccc3ccccc3c2)cc1 | 1000 | 0.69 | > 10000 | 0.22 |  | 100 |
| Nc1ccc(-c2ccc(S(N)(=O)=O)cc2)cc1 | 3700 | 12.3 | 36.5 |  |  |  |
| NS(=O)(=O)c1ccc(-c2cc3ccccc3o2)cc1 | 185 | 0.7 | > 10000 | 0.37 |  | 100 |
| COC(=O)c1cccc(-c2ccc(S(N)(=O)=O)cc2)c1 | 6960 | 14.2 | 19.5 | 159 |  |  |
| NS(=O)(=O)c1ccc(-c2cc3ccccc3[nH]2)cc1 | 656 | 10.2 | 5.6 | 124 |  |  |
| NS(=O)(=O)c1ccc(-c2cccc(C=O)c2)cc1 | 1180 | 2.1 | 0.58 |  |  |  |
| N#Cc1ccc(-c2ccc(S(N)(=O)=O)cc2)cc1 | 1340 | 1.2 | 14.2 | 228 |  |  |
| Nc1cccc(-c2ccc(S(N)(=O)=O)cc2)c1 | 2340 | 9.3 | 4.3 | 126 |  |  |
| NS(=O)(=O)c1ccc(-c2ccc(-c3ccc(S(N)(=O)=O)cc3)cc2)cc1 | > 10000 | 324 | 4.9 | 240 |  |  |
| NS(=O)(=O)c1ccc(-c2ccc(Cn3cccn3)cc2)cc1 | 6970 | 11.1 | 38.3 | 216 |  |  |
| NS(=O)(=O)c1ccc(-c2ccc3c(c2)OCO3)cc1 | > 10000 | 18 | 5.2 | 258 |  |  |
| NS(=O)(=O)c1ccc(-c2cccnc2)cc1 | 2400 | 16.6 | 20.3 | 78.1 |  |  |
| COc1cc(-c2ccc(S(N)(=O)=O)cc2)cc(OC)c1OC | 9520 | 19.1 | 32.2 | 259 |  |  |
| NS(=O)(=O)c1ccc(-c2ccccc2)cc1 | 41.5 | 0.79 | 92.7 | 0.21 | 6 | 100 |
| NS(=O)(=O)c1ccc(-c2ccc3[nH]ccc3c2)cc1 | 24.5 | 0.95 | 65 | 0.17 | 10 | 100 |
| NS(=O)(=O)c1ccc(-c2ccc(-c3ccc(Br)cc3)cc2)cc1 | > 10000 | 764 | 54.2 | 224 |  |  |
